Measured values: the NIST ThermoML archive (doi:10.1016/j.jct.2011.05.014)
Numbers after ± are expanded uncertainties.

Test: excess molar enthalpy (molar enthalpy of mixing); xn = mol fraction of the nth substance listed
Settings: 298.15 K, 101.33 kPa, Liquid, Parr 1455 Solution Calorimeter

O=Cc1ccccc1 [benzaldehyde] + CCCCCO
excess molar enthalpy (x1 = 0.0899): 0.152 ± 0.00198 kcal/mol
excess molar enthalpy (x1 = 0.1799): 0.2818 ± 0.00263 kcal/mol
excess molar enthalpy (x1 = 0.2699): 0.38 ± 0.00335 kcal/mol
excess molar enthalpy (x1 = 0.36): 0.435 ± 0.00359 kcal/mol
excess molar enthalpy (x1 = 0.4499): 0.4637 ± 0.00382 kcal/mol
excess molar enthalpy (x1 = 0.54): 0.4661 ± 0.00382 kcal/mol
excess molar enthalpy (x1 = 0.6259): 0.4405 ± 0.00359 kcal/mol
excess molar enthalpy (x1 = 0.6898): 0.4032 ± 0.00335 kcal/mol
excess molar enthalpy (x1 = 0.7523): 0.357 ± 0.00311 kcal/mol
excess molar enthalpy (x1 = 0.8094): 0.2997 ± 0.00263 kcal/mol
excess molar enthalpy (x1 = 0.8426): 0.261 ± 0.00263 kcal/mol
excess molar enthalpy (x1 = 0.9015): 0.184 ± 0.00208 kcal/mol

O=Cc1ccccc1 [benzaldehyde] + CCO
excess molar enthalpy (x1 = 0.0912): 0.141 ± 0.0016 kcal/mol
excess molar enthalpy (x1 = 0.1809): 0.2267 ± 0.00208 kcal/mol
excess molar enthalpy (x1 = 0.2707): 0.2786 ± 0.00239 kcal/mol
excess molar enthalpy (x1 = 0.3603): 0.3025 ± 0.00263 kcal/mol
excess molar enthalpy (x1 = 0.4503): 0.3107 ± 0.00263 kcal/mol
excess molar enthalpy (x1 = 0.5405): 0.3059 ± 0.00263 kcal/mol
excess molar enthalpy (x1 = 0.628): 0.2864 ± 0.00239 kcal/mol
excess molar enthalpy (x1 = 0.669): 0.2707 ± 0.00232 kcal/mol
excess molar enthalpy (x1 = 0.7164): 0.2485 ± 0.00217 kcal/mol
excess molar enthalpy (x1 = 0.7714): 0.2182 ± 0.00198 kcal/mol
excess molar enthalpy (x1 = 0.8358): 0.17 ± 0.00172 kcal/mol
excess molar enthalpy (x1 = 0.9114): 0.101 ± 0.00131 kcal/mol

O=Cc1ccccc1 [benzaldehyde] + CCCCO
excess molar enthalpy (x1 = 0.0759): 0.142 ± 0.00194 kcal/mol
excess molar enthalpy (x1 = 0.1555): 0.256 ± 0.00263 kcal/mol
excess molar enthalpy (x1 = 0.2374): 0.3417 ± 0.00287 kcal/mol
excess molar enthalpy (x1 = 0.3186): 0.4036 ± 0.00335 kcal/mol
excess molar enthalpy (x1 = 0.4053): 0.4345 ± 0.00359 kcal/mol
excess molar enthalpy (x1 = 0.4922): 0.4468 ± 0.00359 kcal/mol
excess molar enthalpy (x1 = 0.5824): 0.4391 ± 0.00359 kcal/mol
excess molar enthalpy (x1 = 0.6314): 0.4243 ± 0.00359 kcal/mol
excess molar enthalpy (x1 = 0.6755): 0.4059 ± 0.00335 kcal/mol
excess molar enthalpy (x1 = 0.7923): 0.3146 ± 0.00287 kcal/mol
excess molar enthalpy (x1 = 0.8945): 0.195 ± 0.0021 kcal/mol
excess molar enthalpy (x1 = 0.9245): 0.146 ± 0.00208 kcal/mol

O=Cc1ccccc1 [benzaldehyde] + CCCO
excess molar enthalpy (x1 = 0.0896): 0.158 ± 0.00184 kcal/mol
excess molar enthalpy (x1 = 0.1797): 0.2632 ± 0.00239 kcal/mol
excess molar enthalpy (x1 = 0.2698): 0.3294 ± 0.00287 kcal/mol
excess molar enthalpy (x1 = 0.3598): 0.3728 ± 0.00311 kcal/mol
excess molar enthalpy (x1 = 0.4822): 0.391 ± 0.00311 kcal/mol
excess molar enthalpy (x1 = 0.5559): 0.3871 ± 0.00311 kcal/mol
excess molar enthalpy (x1 = 0.5989): 0.3774 ± 0.00311 kcal/mol
excess molar enthalpy (x1 = 0.647): 0.3642 ± 0.00311 kcal/mol
excess molar enthalpy (x1 = 0.7017): 0.3388 ± 0.00287 kcal/mol
excess molar enthalpy (x1 = 0.7626): 0.3006 ± 0.00263 kcal/mol
excess molar enthalpy (x1 = 0.8323): 0.237 ± 0.00227 kcal/mol
excess molar enthalpy (x1 = 0.9112): 0.146 ± 0.00174 kcal/mol

O=Cc1ccccc1 [benzaldehyde] + CO
excess molar enthalpy (x1 = 0.0877): 0.0955 ± 0.00115 kcal/mol
excess molar enthalpy (x1 = 0.1795): 0.1561 ± 0.00151 kcal/mol
excess molar enthalpy (x1 = 0.2704): 0.1984 ± 0.00177 kcal/mol
excess molar enthalpy (x1 = 0.3608): 0.2242 ± 0.00194 kcal/mol
excess molar enthalpy (x1 = 0.4509): 0.2352 ± 0.00201 kcal/mol
excess molar enthalpy (x1 = 0.5406): 0.2337 ± 0.00201 kcal/mol
excess molar enthalpy (x1 = 0.6153): 0.223 ± 0.00194 kcal/mol
excess molar enthalpy (x1 = 0.6966): 0.1983 ± 0.00174 kcal/mol
excess molar enthalpy (x1 = 0.7344): 0.1826 ± 0.00167 kcal/mol
excess molar enthalpy (x1 = 0.7803): 0.1603 ± 0.00153 kcal/mol
excess molar enthalpy (x1 = 0.8379): 0.128 ± 0.00134 kcal/mol
excess molar enthalpy (x1 = 0.9092): 0.078 ± 0.00105 kcal/mol
